Reference: patent US8449898B2 (priority 2007, dated 2013)
Where two headings read alike, the source gives them in different places.

Key:
[1] = tested on: Pseudoperonospora cubensis (the causal agent of cucumber downy mildew); assay: Test B: cucumber downy mildew, preventive spray on cucumber seedlings; assay type: in vivo; conditions: Pseudoperonospora cubensis
[2] = tested on: Phytophthora infestans (the causal agent of tomato late blight); assay: whole plant or invertebrate; assay type: in vivo; conditions: Phytophthora infestans

**Q.** For Cc1cc(C(F)(F)F)nn1CC(=O)N1CCC(c2nc(C3=NOC(c4ccccc4)C3)cs2)CC1 (centres unmarked) [Compound 1, 4-[4-[4,5-dihydro-5-phenyl-3-isoxazolyl]-2-thiazolyl]-1-[[5-methyl-3-(trifluoromethyl)-1H-pyrazol-1-yl]acetyl]piperidine], which pest or weed control at 0.025 ppm ([1]; Compound 1 alone 0.025 ppm, Table H evaluation set, rating 100 = 100% disease control, read-out: CDM Obsd) is on record?
**A.** 33%

**Q.** And the pest or weed control at 0.025 ppm ([1]; Compound 1 alone 0.025 ppm, Table I evaluation set, read-out: CDM Obsd)?
**A.** 47%

**Q.** And the pest or weed control at 0.025 ppm ([1]; Compound 1 alone 0.025 ppm, Table J evaluation set, read-out: CDM Obsd)?
**A.** 47%

**Q.** And the pest or weed control at 0.025 ppm ([1]; Compound 1 alone 0.025 ppm, Table K evaluation set, read-out: CDM Obsd)?
**A.** 76%

**Q.** And the pest or weed control at 0.025 ppm ([1]; Compound 1 alone 0.025 ppm, Table L evaluation set, read-out: CDM Obsd)?
**A.** 51%

**Q.** What about the pest or weed control at 0.05 ppm ([1]; Compound 1 alone 0.05 ppm, Table H evaluation set, read-out: CDM Obsd) of the same molecule?
**A.** 40%

**Q.** And the pest or weed control at 0.05 ppm ([1]; Compound 1 alone 0.05 ppm, Table I evaluation set, read-out: CDM Obsd)?
**A.** 47%

**Q.** What about the pest or weed control at 0.05 ppm ([1]; Compound 1 alone 0.05 ppm, Table J evaluation set, read-out: CDM Obsd) of the same molecule?
**A.** 47%

**Q.** And the pest or weed control at 0.05 ppm ([1]; Compound 1 alone 0.05 ppm, Table K evaluation set, read-out: CDM Obsd)?
**A.** 92%

**Q.** What about the pest or weed control at 0.05 ppm ([1]; Compound 1 alone 0.05 ppm, Table L evaluation set, read-out: CDM Obsd) of the same molecule?
**A.** 51%

**Q.** What about the pest or weed control at 0.075 ppm ([1]; Compound 1 alone 0.075 ppm, Table H evaluation set, read-out: CDM Obsd) of the same molecule?
**A.** 40%

**Q.** What about the pest or weed control at 0.075 ppm ([1]; Compound 1 alone 0.075 ppm, Table I evaluation set, read-out: CDM Obsd) of the same molecule?
**A.** 47%

**Q.** What about the pest or weed control at 0.075 ppm ([1]; Compound 1 alone 0.075 ppm, Table J evaluation set, read-out: CDM Obsd) of the same molecule?
**A.** 47%

**Q.** What about the pest or weed control at 0.075 ppm ([1]; Compound 1 alone 0.075 ppm, Table K evaluation set, read-out: CDM Obsd) of the same molecule?
**A.** 89%

**Q.** And the pest or weed control at 0.075 ppm ([1]; Compound 1 alone 0.075 ppm, Table L evaluation set, read-out: CDM Obsd)?
**A.** 51%

**Q.** What about the pest or weed control at 0.1 ppm ([1]; Compound 1 alone 0.1 ppm, Table H evaluation set, read-out: CDM Obsd) of the same molecule?
**A.** 76%

**Q.** What about the pest or weed control at 0.1 ppm ([1]; Compound 1 alone 0.1 ppm, Table I evaluation set, read-out: CDM Obsd) of the same molecule?
**A.** 57%

**Q.** And the pest or weed control at 0.1 ppm ([1]; Compound 1 alone 0.1 ppm, Table J evaluation set, read-out: CDM Obsd)?
**A.** 47%

**Q.** What about the pest or weed control at 0.1 ppm ([1]; Compound 1 alone 0.1 ppm, Table K evaluation set, read-out: CDM Obsd) of the same molecule?
**A.** 98%

**Q.** What about the pest or weed control at 0.1 ppm ([1]; Compound 1 alone 0.1 ppm, Table L evaluation set, read-out: CDM Obsd) of the same molecule?
**A.** 98%

**Q.** And the pest or weed control at 0.125 ppm ([1]; Compound 1 alone 0.125 ppm, Table H evaluation set, read-out: CDM Obsd)?
**A.** 81%

**Q.** And the pest or weed control at 0.125 ppm ([1]; Compound 1 alone 0.125 ppm, Table I evaluation set, read-out: CDM Obsd)?
**A.** 57%

**Q.** And the pest or weed control at 0.125 ppm ([1]; Compound 1 alone 0.125 ppm, Table J evaluation set, read-out: CDM Obsd)?
**A.** 47%

**Q.** And the pest or weed control at 0.125 ppm ([1]; Compound 1 alone 0.125 ppm, Table K evaluation set, read-out: CDM Obsd)?
**A.** 99%

**Q.** What about the pest or weed control at 0.125 ppm ([1]; Compound 1 alone 0.125 ppm, Table L evaluation set, read-out: CDM Obsd) of the same molecule?
**A.** 81%

**Q.** What about the pest or weed control at 0.05 ppm ([1]; Table A, Compound 1 alone 0.05 ppm, read-out: CDM Obsd (disease control rating)) of the same molecule?
**A.** 88%

**Q.** And the pest or weed control at 0.1 ppm ([1]; Table A, Compound 1 alone 0.1 ppm, read-out: CDM Obsd (disease control rating))?
**A.** 95%

**Q.** And the pest or weed control at 0.15 ppm ([1]; Table A, Compound 1 alone 0.15 ppm, read-out: CDM Obsd (disease control rating))?
**A.** 100%

**Q.** And the pest or weed control at 0.2 ppm ([1]; Table A, Compound 1 alone 0.2 ppm, read-out: CDM Obsd (disease control rating))?
**A.** 100%

**Q.** What about the pest or weed control at 1 ppm ([1]; Table A, Compound 1 alone 1 ppm, read-out: CDM Obsd (disease control rating)) of the same molecule?
**A.** 100%

**Q.** And the pest or weed control at 0.05 ppm ([1]; Table B, Compound 1 alone 0.05 ppm, read-out: CDM Obsd (disease control rating))?
**A.** 64%

**Q.** What about the pest or weed control at 0.1 ppm ([1]; Table B, Compound 1 alone 0.1 ppm, read-out: CDM Obsd (disease control rating)) of the same molecule?
**A.** 86%

**Q.** And the pest or weed control at 0.15 ppm ([1]; Table B, Compound 1 alone 0.15 ppm, read-out: CDM Obsd (disease control rating))?
**A.** 85%

**Q.** And the pest or weed control at 0.2 ppm ([1]; Table B, Compound 1 alone 0.2 ppm, read-out: CDM Obsd (disease control rating))?
**A.** 92%

**Q.** And the pest or weed control at 1 ppm ([1]; Table B, Compound 1 alone 1 ppm, read-out: CDM Obsd (disease control rating))?
**A.** 100%

**Q.** What about the pest or weed control at 0.05 ppm ([1]; Table C, Compound 1 alone 0.05 ppm, read-out: CDM Obsd (disease control rating)) of the same molecule?
**A.** 77%

**Q.** What about the pest or weed control at 0.1 ppm ([1]; Table C, Compound 1 alone 0.1 ppm, read-out: CDM Obsd (disease control rating)) of the same molecule?
**A.** 86%

**Q.** What about the pest or weed control at 0.15 ppm ([1]; Table C, Compound 1 alone 0.15 ppm, read-out: CDM Obsd (disease control rating)) of the same molecule?
**A.** 95%

**Q.** And the pest or weed control at 0.2 ppm ([1]; Table C, Compound 1 alone 0.2 ppm, read-out: CDM Obsd (disease control rating))?
**A.** 100%

**Q.** What about the pest or weed control at 1 ppm ([1]; Table C, Compound 1 alone 1 ppm, read-out: CDM Obsd (disease control rating)) of the same molecule?
**A.** 100%

**Q.** What about the pest or weed control at 0.05 ppm ([1]; Table D, Compound 1 alone at 0.05 ppm, read-out: CDM Obsd) of the same molecule?
**A.** 64%

**Q.** What about the pest or weed control at 0.1 ppm ([1]; Table D, Compound 1 alone at 0.1 ppm, read-out: CDM Obsd) of the same molecule?
**A.** 77%

**Q.** What about the pest or weed control at 0.15 ppm ([1]; Table D, Compound 1 alone at 0.15 ppm, read-out: CDM Obsd) of the same molecule?
**A.** 86%

**Q.** What about the pest or weed control at 0.2 ppm ([1]; Table D, Compound 1 alone at 0.2 ppm, read-out: CDM Obsd) of the same molecule?
**A.** 93%

**Q.** What about the pest or weed control at 1 ppm ([1]; Table D, Compound 1 alone at 1 ppm, read-out: CDM Obsd) of the same molecule?
**A.** 100%

**Q.** What about the pest or weed control at 0.025 ppm ([1]; Table F, Compound 1 alone at 0.025 ppm, read-out: CDM Obsd) of the same molecule?
**A.** 40%

**Q.** And the pest or weed control at 0.05 ppm ([1]; Table F, Compound 1 alone at 0.05 ppm, read-out: CDM Obsd)?
**A.** 68%

**Q.** And the pest or weed control at 0.075 ppm ([1]; Table F, Compound 1 alone at 0.075 ppm, read-out: CDM Obsd)?
**A.** 39%

**Q.** And the pest or weed control at 0.1 ppm ([1]; Table F, Compound 1 alone at 0.1 ppm, read-out: CDM Obsd)?
**A.** 47%

**Q.** And the pest or weed control at 0.125 ppm ([1]; Table F, Compound 1 alone at 0.125 ppm, read-out: CDM Obsd)?
**A.** 58%

**Q.** What about the pest or weed control at 0.025 ppm ([1]; Table G, Compound 1 alone at 0.025 ppm, read-out: CDM Obsd) of the same molecule?
**A.** 26%

**Q.** And the pest or weed control at 0.05 ppm ([1]; Table G, Compound 1 alone at 0.05 ppm, read-out: CDM Obsd)?
**A.** 26%

**Q.** What about the pest or weed control at 0.075 ppm ([1]; Table G, Compound 1 alone at 0.075 ppm, read-out: CDM Obsd) of the same molecule?
**A.** 47%

**Q.** And the pest or weed control at 0.1 ppm ([1]; Table G, Compound 1 alone at 0.1 ppm, read-out: CDM Obsd)?
**A.** 47%

**Q.** And the pest or weed control at 0.125 ppm ([1]; Table G, Compound 1 alone at 0.125 ppm, read-out: CDM Obsd)?
**A.** 68%

**Q.** And the pest or weed control at 0.05 ppm ([2]; read-out: TLB Obsd (disease control rating), Table A, Compound 1 alone 0.05 ppm)?
**A.** 34%

**Q.** What about the pest or weed control at 0.1 ppm ([2]; read-out: TLB Obsd (disease control rating), Table A, Compound 1 alone 0.1 ppm) of the same molecule?
**A.** 78%

**Q.** What about the pest or weed control at 0.15 ppm ([2]; read-out: TLB Obsd (disease control rating), Table A, Compound 1 alone 0.15 ppm) of the same molecule?
**A.** 97%

**Q.** And the pest or weed control at 0.2 ppm ([2]; read-out: TLB Obsd (disease control rating), Table A, Compound 1 alone 0.2 ppm)?
**A.** 94%

**Q.** What about the pest or weed control at 1 ppm ([2]; read-out: TLB Obsd (disease control rating), Table A, Compound 1 alone 1 ppm) of the same molecule?
**A.** 100%

**Q.** What about the pest or weed control at 0.05 ppm ([2]; read-out: TLB Obsd (disease control rating), Table B, Compound 1 alone 0.05 ppm) of the same molecule?
**A.** 26%

**Q.** And the pest or weed control at 0.1 ppm ([2]; read-out: TLB Obsd (disease control rating), Table B, Compound 1 alone 0.1 ppm)?
**A.** 53%

**Q.** What about the pest or weed control at 0.15 ppm ([2]; read-out: TLB Obsd (disease control rating), Table B, Compound 1 alone 0.15 ppm) of the same molecule?
**A.** 59%

**Q.** What about the pest or weed control at 0.2 ppm ([2]; read-out: TLB Obsd (disease control rating), Table B, Compound 1 alone 0.2 ppm) of the same molecule?
**A.** 56%

**Q.** What about the pest or weed control at 1 ppm ([2]; read-out: TLB Obsd (disease control rating), Table B, Compound 1 alone 1 ppm) of the same molecule?
**A.** 100%

**Q.** And the pest or weed control at 0.05 ppm ([2]; read-out: TLB Obsd (disease control rating), Table C, Compound 1 alone 0.05 ppm)?
**A.** 17%

**Q.** And the pest or weed control at 0.1 ppm ([2]; read-out: TLB Obsd (disease control rating), Table C, Compound 1 alone 0.1 ppm)?
**A.** 17%

**Q.** And the pest or weed control at 0.15 ppm ([2]; read-out: TLB Obsd (disease control rating), Table C, Compound 1 alone 0.15 ppm)?
**A.** 57%

**Q.** And the pest or weed control at 0.2 ppm ([2]; read-out: TLB Obsd (disease control rating), Table C, Compound 1 alone 0.2 ppm)?
**A.** 51%

**Q.** And the pest or weed control at 1 ppm ([2]; read-out: TLB Obsd (disease control rating), Table C, Compound 1 alone 1 ppm)?
**A.** 99%

**Q.** And the pest or weed control at 0.05 ppm ([2]; read-out: TLB Obsd, Table D, Compound 1 alone at 0.05 ppm)?
**A.** 32%

**Q.** And the pest or weed control at 0.1 ppm ([2]; read-out: TLB Obsd, Table D, Compound 1 alone at 0.1 ppm)?
**A.** 52%

**Q.** And the pest or weed control at 0.15 ppm ([2]; read-out: TLB Obsd, Table D, Compound 1 alone at 0.15 ppm)?
**A.** 90%

**Q.** And the pest or weed control at 0.2 ppm ([2]; read-out: TLB Obsd, Table D, Compound 1 alone at 0.2 ppm)?
**A.** 67%

**Q.** And the pest or weed control at 1 ppm ([2]; read-out: TLB Obsd, Table D, Compound 1 alone at 1 ppm)?
**A.** 100%

**Q.** What about the pest or weed control at 0.05 ppm ([2]; read-out: TLB Obsd, Table E, Compound 1 alone at 0.05 ppm) of the same molecule?
**A.** 33%

**Q.** And the pest or weed control at 0.1 ppm ([2]; read-out: TLB Obsd, Table E, Compound 1 alone at 0.1 ppm)?
**A.** 75%

**Q.** What about the pest or weed control at 0.15 ppm ([2]; read-out: TLB Obsd, Table E, Compound 1 alone at 0.15 ppm) of the same molecule?
**A.** 92%

**Q.** What about the pest or weed control at 0.2 ppm ([2]; read-out: TLB Obsd, Table E, Compound 1 alone at 0.2 ppm) of the same molecule?
**A.** 90%

**Q.** And the pest or weed control at 1 ppm ([2]; read-out: TLB Obsd, Table E, Compound 1 alone at 1 ppm)?
**A.** 100%
